{
  "source": "ChEMBL document CHEMBL1240392",
  "about": "(Antimicrob Agents Chemother, 2010)",
  "key": {"[1]": {"assay": "Cmax in C57BL/6 mouse pneumonia model at 25 mg/kg, ip", "assay_type": "ADME, organism-based", "set-up": "dose 25 mg/kg, route intraperitoneal", "settings": "in vivo"}, "Oryctolagus cuniculus": {"tested_on": "Oryctolagus cuniculus", "assay": "Antiinflammatory activity in Acinetobacter baumannii 1327-infected New Zealand rabbit meningitis model assessed as in WBC count at 25 mg/kg, iv after 6 hrs (RVb = 1 cells/ul)", "assay_type": "functional"}, "[2]": {"assay": "T>MIC in Acinetobacter baumannii infected C57BL/6 mouse pneumonia model at 25 mg/kg, iv", "assay_type": "functional"}, "[3]": {"assay": "T>MIC in Acinetobacter baumannii infected New Zealand rabbit meningitis model at 25 mg/kg, iv", "assay_type": "functional"}, "Acinetobacter baumannii [4]": {"tested_on": "Acinetobacter baumannii", "assay": "Antibacterial activity against Acinetobacter baumannii 1327 infected in New Zealand rabbit meningitis model assessed as reduction in bacterial count in CSF at 25 mg/kg, iv measured after 6 hrs of last dose (RVb = 5.5)", "assay_type": "functional"}, "Acinetobacter baumannii [5]": {"tested_on": "Acinetobacter baumannii", "assay": "Antibacterial activity against Acinetobacter baumannii 1327 infected in New Zealand rabbit meningitis model assessed as reduction in bacterial count in CSF at 25 mg/kg, iv measured after 4 hrs of last dose (RVb = 5.2)", "assay_type": "functional"}, "Acinetobacter baumannii [6]": {"tested_on": "Acinetobacter baumannii", "assay": "Antibacterial activity against Acinetobacter baumannii 1327 infected in New Zealand rabbit meningitis model assessed as reduction in bacterial count in CSF at 25 mg/kg, iv measured after 2 hrs of last dose (RVb = 5.1)", "assay_type": "functional"}, "Acinetobacter baumannii [7]": {"tested_on": "Acinetobacter baumannii", "assay": "Antimicrobial activity against Acinetobacter baumannii infected in C57BL/6 mouse model assessed as reduction in bacterial count in blood at total dose of 100 mg/kg/day, ip administered as four divided doses after 72 hrs", "assay_type": "functional", "set-up": "scale not given: the % may be the effect or the level left", "settings": "route intraperitoneal"}, "Acinetobacter baumannii [8]": {"tested_on": "Acinetobacter baumannii", "assay": "Antimicrobial activity against Acinetobacter baumannii infected in C57BL/6 mouse model assessed as reduction in bacterial count per gram of lung at total dose of 100 mg/kg/day, ip administered as four divided doses after 72 hrs (RVb = 10.6+/-0.27)", "assay_type": "functional, organism-based"}, "Acinetobacter baumannii [9]": {"tested_on": "Acinetobacter baumannii", "assay": "Antibacterial activity against Acinetobacter baumannii infected in C57BL/6 mouse model assessed as survival rate at total dose of 100 mg/kg/day, ip administered as four divided doses measured after 72 hrs post last dose", "assay_type": "functional", "settings": "route intraperitoneal"}, "Acinetobacter baumannii [10]": {"tested_on": "Acinetobacter baumannii", "assay": "Antimicrobial activity against Acinetobacter baumannii 1417", "assay_type": "functional"}, "Acinetobacter baumannii [11]": {"tested_on": "Acinetobacter baumannii", "assay": "Antimicrobial activity against Acinetobacter baumannii 1327", "assay_type": "functional"}, "Acinetobacter baumannii [12]": {"tested_on": "Acinetobacter baumannii", "assay": "Antimicrobial activity against Acinetobacter baumannii 940", "assay_type": "functional"}, "Acinetobacter baumannii [13]": {"tested_on": "Acinetobacter baumannii", "assay": "Antimicrobial activity against Acinetobacter baumannii 506", "assay_type": "functional"}, "Acinetobacter baumannii [14]": {"tested_on": "Acinetobacter baumannii", "assay": "Antimicrobial activity against Acinetobacter baumannii 1417 after 24 hrs by time-kill assay", "assay_type": "functional, organism-based"}, "Acinetobacter baumannii [15]": {"tested_on": "Acinetobacter baumannii", "assay": "Antimicrobial activity against Acinetobacter baumannii 1327 after 24 hrs by time-kill assay", "assay_type": "functional, organism-based"}, "Acinetobacter baumannii [16]": {"tested_on": "Acinetobacter baumannii", "assay": "Antimicrobial activity against Acinetobacter baumannii 940 after 24 hrs by time-kill assay", "assay_type": "functional, organism-based"}, "Acinetobacter baumannii [17]": {"tested_on": "Acinetobacter baumannii", "assay": "Antimicrobial activity against Acinetobacter baumannii 506 after 24 hrs by time-kill assay", "assay_type": "functional, organism-based"}, "[18]": {"assay": "AUC in New Zealand rabbit meningitis model at 25 mg/kg, iv", "assay_type": "ADME, organism-based, Oryctolagus cuniculus", "set-up": "dose 25 mg/kg, route intravenous", "settings": "in vivo"}, "[19]": {"assay": "AUC in C57BL/6 mouse pneumonia model at 25 mg/kg, ip", "assay_type": "ADME, organism-based", "set-up": "dose 25 mg/kg, route intraperitoneal", "settings": "in vivo"}, "[20]": {"assay": "Cmax in New Zealand rabbit meningitis model at 25 mg/kg, iv", "assay_type": "ADME, organism-based, Oryctolagus cuniculus", "set-up": "dose 25 mg/kg, route intravenous", "settings": "in vivo"}},
  "note": "The source made the active and inactive calls. The rule behind the calls is not given here.",
  "data": [
    {"molecule": "CO[C@H]1/C=C/O[C@@]2(C)Oc3c(C)c(O)c4c(O)c(c(/C=N/N5CCN(C)CC5)c(O)c4c3C2=O)NC(=O)/C(C)=C\\C=C\\[C@H](C)[C@H](O)[C@@H](C)[C@@H](O)[C@@H](C)[C@H](OC(C)=O)[C@@H]1C", "note": "[RIFAMPIN]", "values": [
      {"measurement": "Cmax", "setting": "[1]", "result": 15800, "unit": "ng/mL"},
      {"measurement": "Activity", "setting": "Oryctolagus cuniculus", "result": 8.2, "unit": "%"},
      {"measurement": "T>MIC", "setting": "[2]", "result": 7.5, "unit": "h"},
      {"measurement": "T>MIC", "setting": "[3]", "result": 6.54, "unit": "h"},
      {"measurement": "Activity", "setting": "Acinetobacter baumannii [4]", "result": 3.5, "unit": "log10CFU/ml"},
      {"measurement": "Activity", "setting": "Acinetobacter baumannii [5]", "result": 4.5, "unit": "log10CFU/ml"},
      {"measurement": "Activity", "setting": "Acinetobacter baumannii [6]", "result": 5.1, "unit": "log10CFU/ml"},
      {"measurement": "Activity", "setting": "Acinetobacter baumannii [7]", "result": 78.6, "unit": "%"},
      {"measurement": "Activity", "setting": "Acinetobacter baumannii [8]", "result": "Active"},
      {"measurement": "survival at 100 mg/kg/day", "setting": "Acinetobacter baumannii [9]", "result": 71.4, "unit": "%"},
      {"measurement": "MBC", "setting": "Acinetobacter baumannii [10]", "result": 8, "unit": "µg/mL"},
      {"measurement": "MIC", "setting": "Acinetobacter baumannii [10]", "result": 8, "unit": "µg/mL"},
      {"measurement": "MBC", "setting": "Acinetobacter baumannii [11]", "result": 8, "unit": "µg/mL"},
      {"measurement": "MIC", "setting": "Acinetobacter baumannii [11]", "result": 4, "unit": "µg/mL"},
      {"measurement": "MBC", "setting": "Acinetobacter baumannii [12]", "result": 4, "unit": "µg/mL"},
      {"measurement": "MIC", "setting": "Acinetobacter baumannii [12]", "result": 4, "unit": "µg/mL"},
      {"measurement": "MBC", "setting": "Acinetobacter baumannii [13]", "result": 4, "unit": "µg/mL"},
      {"measurement": "MIC", "setting": "Acinetobacter baumannii [13]", "result": 4, "unit": "µg/mL"},
      {"measurement": "Activity", "setting": "Acinetobacter baumannii [14]", "result": "Active"},
      {"measurement": "Activity", "setting": "Acinetobacter baumannii [15]", "result": "Active"},
      {"measurement": "Activity", "setting": "Acinetobacter baumannii [16]", "result": "Active"},
      {"measurement": "Activity", "setting": "Acinetobacter baumannii [17]", "result": "Active"},
      {"measurement": "AUC", "setting": "[18]", "result": 40300, "unit": "ng·h/mL"},
      {"measurement": "AUC", "setting": "[19]", "result": 24800, "unit": "ng·h/mL"},
      {"measurement": "Cmax", "setting": "[20]", "result": 16600, "unit": "ng/mL"}
    ]}
  ]
}
